Structures can show the parent of a compound that is named as a salt.
Assays:
[1] = target: T1, human kappa opioid receptors (Homo sapiens, UniProt P41145); assay: In-cell western ERK1/2 phosphorylation, inhibition of U69,593 induced ERK phosphorylation; format: cell-based; details: hKOR-CHO cells, 100 nM U69,593, n ≥ 3; for IC50: read-out: IC50 (nM) ± S.E.M. ERK
T1 construct: HA; expressed in transfected cells; host or cells: Chinese hamster ovary (CHO) cells, virally transfected
Experimental: (§1) Chinese hamster ovary (CHO) cells were virally transfected to express HA-tagged recombinant human kappa opioid receptors (CHO-hKOR cell line) and maintained in DMEM/F-12 media (Invitrogen) supplemented with 10% fetal bovine serum, 1% penicillin/streptomycin, and 500 μg/ml geneticin as described in Schmid, C. L.; Streicher, J. M.; Groer, C. E.; Munro, T. A.; Zhou, L.; Bohn, L. M. Functional selectivity of 6′-guanidinonaltrindole (6′-GNTI) at kappa opioid receptors in striatal neurons. […] A DiscoveRx PathHunter™ U2OS cell line expressing βarrestin2 and hKOR (U2OS-hKOR-βarrestin2-DX) was purchased from DiscoveRx Corporation (Fremont, Calif.) and maintained MEM with 10% fetal bovine serum, 1% penicillin/streptomycin, 500 μg/ml geneticin and 250 μg/ml hygromycin B. All cells were grown at 37° C. (5% CO2 and 95% relative humidity).
Briefly, hKOR-CHO cells were plated in 384-well plate at 15,000 cells per well and incubated at 37° C. overnight. After an hour serum starve, cells were treated with compound followed by the addition of 100 nM U69,593 and a 10 minute incubation at 37° C. Cells were fixed, permeabilized, blocked, and stained with primary antibodies for phosphorylated ERK1/2 and total-ERK1/2 (1:300 and 1:400, respectively) at 4° C. overnight. Cells then incubated with Li-Cor secondary antibodies (anti-rabbit IRDye800CW, 1:500; anti-mouse IRDye680LT, 1:1500) and imaged with the Odyssey Infrared Imager (Li-Cor Biosciences, Lincoln, Nebr.) at 700 and 800 nm.
(§2) All compounds were run in parallel assays in 2-4 replicates per individual experiment. All studies were performed n≥3 independent experiments in multiple replicates. For determination of antagonist inhibition, each individual experiment was normalized to the percentage of maximal U69,593 stimulation. The efficacy and potency values were obtained from the averages of the nonlinear regression analysis performed on each individual curve and are reported as the mean±S.E.M.

[2] = target: T1, human kappa opioid receptors; assay: [35S]GTPγS binding (G protein coupling) assay, antagonism of U69,593; format: biochemical; details: CHO-hKOR membranes, 100 nM U69,593, n ≥ 3; for IC50: read-out: IC50 (nM) ± S.E.M. [35S]GTPγS
Experimental: as §1
Briefly, cells were serum starved for 1 hour and membranes were prepared. Each reaction was performed at room temperature and contained 15 μg of membrane protein, 40 μM GDP, ˜0.1 nM [^35S]GTPγS and increasing concentrations of compounds in assay buffer (50 mM Tris-HCl, pH 7.4, 100 mM NaCl, 5 mM MgCl2, 1 mM EDTA). Directly after the addition of test compounds, 100 nM U69,593 was added to yield a total volume of 200 μL. After 1 hour, reactions were quenched by rapid filtration through GF/B filters and radioactivity was counted with a TopCount NXT high throughput screening microplate scintillation and luminescence counter (PerkinElmer Life Sciences).
as §2

hKOR = target: T2, hKOR (Homo sapiens, UniProt P41145); assay: βArrestin2 recruitment (DiscoveRx PathHunter) assay; format: cell-based; details: for β arrestin 2 Inhibition (% U69,593 Stimulation) 1 μm: compound at 1 μm; for β arrestin 2 Inhibition (% U69,593 Stimulation) 1 μm / β arrestin 2 Inhibition (% U69,593 Stimulation) 10 Nm / β arrestin 2 Inhibition (% U69,593 Stimulation) 100 Nm: set concentration of U69,593; for β arrestin 2 Inhibition (% U69,593 Stimulation) 10 Nm: compound at 10 Nm; for β arrestin 2 Inhibition (% U69,593 Stimulation) 100 Nm: compound at 100 Nm; for IC50: read-out: IC50 (nM) ± S.E.M. βarr2
T2 construct: host or cells: U2OS (PathHunter U2OS-hKOR-βarrestin2-DX), purchased engineered cell line
T2 sequence (P41145 whole entry): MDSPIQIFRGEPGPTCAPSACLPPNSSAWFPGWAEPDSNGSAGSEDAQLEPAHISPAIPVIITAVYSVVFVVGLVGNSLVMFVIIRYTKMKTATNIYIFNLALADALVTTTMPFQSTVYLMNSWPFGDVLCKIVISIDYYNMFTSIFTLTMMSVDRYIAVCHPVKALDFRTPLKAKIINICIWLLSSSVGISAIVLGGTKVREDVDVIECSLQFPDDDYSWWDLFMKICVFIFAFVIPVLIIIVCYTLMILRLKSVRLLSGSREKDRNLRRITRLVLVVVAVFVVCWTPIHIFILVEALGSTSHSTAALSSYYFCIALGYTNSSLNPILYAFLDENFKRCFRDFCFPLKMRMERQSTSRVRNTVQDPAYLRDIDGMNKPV
Experimental: as §1
Briefly, 5,000 cells/well were plated overnight in Opti-MEM containing 1% fetal bovine serum, 1% penicillin/streptomycin. Cells were pretreated with antagonist for 15 min at 37° C. followed by the addition of 1 μM U69,593 and a 90 minute incubation at 37° C. PathHunter™ detection reagent was added and cells incubated at room temperature for 60 minutes. Chemiluminescence was detected using a SpectraMax® M5e Multimode Plate Reader (Molecular Devices). βarrestin2 recruitment assays were also performed using an imaging platform (Cellomics) to visulalize translocation of a fluorescent protein tagged βarrestin2 to the membrane of KOR expressing U2OS cells.
as §2

C57BL/6 mice = assay: Locomotor activity in open field, alone and against U50,488; format: in vivo
[3] = Concentrations in plasma and brain tissue of mice after a single IP dose; details: single 10 mg/kg IP
[4] = mouse brain, single administration; cited from earlier work
[5] = U2OS-hKOR-βarrestin2-DX cells, 1 μM U69,593, n ≥ 3

T1 sequence (P41145 whole entry): as above

Row | Compound | β arrestin 2 Inhibition (% U69,593 Stimulation) 1 μm (hKOR) | β arrestin 2 Inhibition (% U69,593 Stimulation) 10 Nm (hKOR) | β arrestin 2 Inhibition (% U69,593 Stimulation) 100 Nm (hKOR) | IC50 [1] [nM] | IC50 [2] [nM] | IC50 (hKOR; [5]) [nM] | further results
1 | Cc1ccc(S(=O)(=O)N(C)Cc2ccc(C(=O)N(C)CCN(Cc3ccccc3)C(C)C)cc2)cc1 [Compound 1a, N-(2-(Benzyl(isopropyl)amino)ethyl)-N-methyl-4-((N,4-dimethylphenylsulfonamido)methyl)benzamide, reference compound] | – | – | – | – | – | – | IC50 (nM) ± S.E.M. ERK [1]: inactive; IC50 (nM) ± S.E.M. [35S]GTPγS [2]: inactive; IC50 (nM) ± S.E.M. βarr2 (hKOR; [5]): inactive
2 | COc1ccc(CN(CCNC(=O)c2ccc3c(c2)CCN(S(=O)(=O)c2ccc(C)cc2)C3)C(C)(C)C)cc1 [Compound 1b, N-(2-(tert-butyl(4-methoxybenzyl)amino)ethyl)-2-tosyl-1,2,3,4-tetrahydroisoquinoline-6-carboxamide] | 0.0 % U69,593 Stimulation | 0.0 % U69,593 Stimulation | 0.8 % U69,593 Stimulation | – | – | – | –
3 | Cc1cc(C)c(S(=O)(=O)N2CCc3cc(C(=O)NCCN(Cc4ccccc4)C(C)C)ccc3C2)c(C)c1 [Compound 1c, N-(2-(Benzyl(isopropyl)amino)ethyl)-2-(mesitylsulfonyl)-1,2,3,4-tetrahydroisoquinoline-6-carboxamide] | – | – | – | 1120 | 113 ± 42 | 930 ± 150 | –
4 | CCc1ccc(S(=O)(=O)N2CCc3cc(C(=O)NCCN(Cc4ccc(Br)cc4)C(C)C)ccc3C2)cc1 [Compound 1g, N-(2-((4-Bromobenzyl)(isopropyl)amino)ethyl)-2-((4-ethylphenyl)sulfonyl)-1,2,3,4-tetrahydroisoquinoline-6-carboxamide] | – | – | – | 314 ± 56 | 33 ± 11 | 350 ± 68 | –
5 | Cc1ccc(S(=O)(=O)N2CCc3cc(C(=O)NCCN(Cc4ccccc4)C(C)(C)C)ccc3C2)cc1 [Compound 1h, N-(2-(Benzyl(tert-butyl)amino)ethyl)-2-tosyl-1,2,3,4-tetrahydroisoquinoline-6-carboxamide] | – | – | – | 49.1 ± 9.7 | 5.28 ± 0.6 | 104 ± 8.2 | –
6 | Cc1ccc(S(=O)(=O)N2CCc3cc(C(=O)NCCN(Cc4ccc(Cl)cc4)C(C)(C)C)ccc3C2)cc1 [Compound 1l, N-(2-((4-Chlorobenzyl)(tert-butyl)amino)ethyl)-2-tosyl-1,2,3,4-tetrahydroisoquinoline-6-carboxamide] | 1.5 % U69,593 Stimulation | 29.9 % U69,593 Stimulation | 0.4 % U69,593 Stimulation | – | – | – | effect of pretreatment on U50,488 hypolocomotion (C57BL/6 mice; 10-minute pretreatment, 10 mg/kg i.p., vs vehicle pretreatment followed by U50,488, FIG. 3): prevents the development of U50,488 hypolocomotion; suppression of locomotor (ambulatory) activity compared to vehicle (C57BL/6 mice; C57BL/6 mice, open field, 1 hour, FIG. 2): not to suppress activity compared to vehicle; clearance from brain tissue ([3]; 4h measurement): almost fully cleared; crossing of the blood brain barrier into the CNS ([3]; brain tissue, within 0.5 h): cross the blood brain barrier into the CNS at concentrations similar to norBNI
7 | Cc1ccc(S(=O)(=O)N2CCc3cc(C(=O)NCCN(Cc4ccc(Br)cc4)C(C)(C)C)ccc3C2)cc1 [Compound 1m, N-(2-((4-Bromobenzyl)(tert-butyl)amino)ethyl)-2-tosyl-1,2,3,4-tetrahydroisoquinoline-6-carboxamide] | – | – | – | 87 ± 17 | 2.9 ± 1.2 | 93 ± 30 | –
8 | Cc1cc(C)c(S(=O)(=O)N2CCc3cc(C(=O)NCCN(Cc4ccc(Br)cc4)C(C)(C)C)ccc3C2)c(C)c1 [Compound 1n, N-(2-((4-Bromobenzyl)(tert-butyl)amino)ethyl)-2-(mesitylsulfonyl)-1,2,3,4-tetrahydroisoquinoline-6-carboxamide] | – | – | – | 1340 | 106 ± 16 | 710 ± 150 | –
9 | Oc1ccc2c3c1O[C@H]1c4[nH]c5c(c4C[C@@]4(O)[C@@H](C2)N(CC2CC2)CC[C@]314)C[C@@]1(O)[C@H]2Cc3ccc(O)c4c3[C@@]1(CCN2CC1CC1)[C@H]5O4 [norBNI, nor-binaltorphimine dihydrochloride, reference compound] | 0.9 % U69,593 Stimulation | 0.1 % U69,593 Stimulation | 0.6 % U69,593 Stimulation | – | – | – | time after which still detected in brain tissue [4]: more than 21 days; presence in brain tissue ([3]; after 72 h): still significantly present

Reference: US10829453B2, “Antagonists of the kappa opioid receptor” (University of Kansas, priority 2014, dated 2020)
